This test concerns IL-1β Production of THP-1. Put plainly: Test on IL-1β production of THP-1 (LPS and ATP stimulation, ELISA). The note with it: Homo sapiens; PMA-differentiated THP-1 cells, LPS 50 ng/mL and ATP 5 mM, 2 hours. The class given is cell-based. As to the method: 50 ng/mL of PMA (phorbol myristate acetate, SIGMA, P1585) was added to THP-1 cells, and the cells were cultured at 37° C. for 2 days. […] LPS (Lipopolysaccharide, SIMGA, L2880) and ATP (Adenosine triphosphate, SIGMA, A2383) were added to final concentrations of 50 ng/mL and 5 mM, respectively, and the cells were cultured at 37° C. for 2 hours. The supernatant was collected, and the concentration of IL-1β was measured by an ELISA method (DuoSet ELISA human IL-1β, R&D Systems, DY201). […] The IC50 value was calculated by sigmoid […] model non-linear regression analysis.
(In general: In an ELISA, binding on a coated surface is turned into a signal by an enzyme label.)

pIC50: −log10 of the molar value. Where a name gives a salt, the structure may show the parent alone.

For orientation: pIC50 means the IC50 on a negative log10 scale, so that one unit is a factor of ten. Low values mean a large IC50, high ones a small IC50.

In the case of `Cc1c(NC[C@@H](C)CO)nnc(-c2ccc(C(F)(F)F)cc2O)c1C` (single isomer, unassigned) [Example 76, 2-(6-{[(R2R)-3-hydroxy-2-methylpropyl]amino}-4,5-dimethylpyridazine-3-yl)-5-(trifluoromethyl)phenol], the pIC50 was 7.59.

The compound `OCCCNc1cc(-c2ccccc2)c(-c2ccc(C(F)(F)F)cc2)nn1` [Example 1, 3-({5-phenyl-6-[4-(trifluoromethyl)phenyl]pyridazin-3-yl}amino)propan-1-ol] had a pIC50 of 6.01.

Turning to `OCCCNc1nnc(-c2ccc(C(F)(F)F)cc2)cc1-c1ccccc1` [Example 2], the pIC50 is 5.74.

Compound `CCOC(=O)c1cc(-c2ccc(C(F)(F)F)cc2C(F)(F)F)nnc1NC[C@@H](C)O` [Example 3, ethyl 6-[2,4-bis(trifluoromethyl)phenyl]-3-{[(2R)-2-hydroxypropyl]amino}pyridazine-4-carboxylate] showed a pIC50 of 6.92.

In turn, `Cc1cc(NC[C@@H](C)O)nnc1-c1ccc(C(F)(F)F)cc1C(F)(F)F` [Example 5, (2R)-1-({6-[2,4-bis(trifluoromethyl)phenyl]-5-methylpyridazin-3-yl}amino)propan-2-ol] had a pIC50 of 6.70.

The compound `Cc1cc(-c2ccc(C(F)(F)F)cc2C(F)(F)F)nnc1NC[C@@H](C)O` [Example 6, (2R)-1-({6-[2,4-bis(trifluoromethyl)phenyl]-4-methylpyridazin-3-yl}amino)propan-2-ol] gave a pIC50 of 7.05.

Compound `Cc1cc(NC[C@@H](C)O)nnc1-c1ccc(C(F)(F)F)cc1O` [Example 7, 2-(6-{[(R2R)-2-hydroxypropyl]amino}-4-methylpyridazin-3-yl)-5-(trifluoromethyl)phenol] showed a pIC50 of 7.77.

Turning to `Cc1cc(-c2ccc(C(F)(F)F)cc2O)nnc1NC[C@@H](C)O` [Example 8, 2-(6-{[(R2R)-2-hydroxypropyl]amino}-5-methylpyridazin-3-yl)-5-(trifluoromethyl)phenol], the pIC50 was 6.80.

Regarding `CC(O)CNc1ccc(-c2ccc(C(F)(F)F)cc2C(F)(F)F)nn1` (stereo not drawn) [Example 10], the negative logarithm of the IC50 (pIC50) is 6.70.

`CC(=O)NCCCCNc1ccc(-c2ccc(C(F)(F)F)cc2C(F)(F)F)nn1` [Example 11] gave a pIC50 of 6.82. This pIC50 and that of the compound before are within 0.2 log units of each other.

For the compound `C[C@@H](O)CNc1ccc(-c2ccc(C(F)(F)F)cc2C(F)(F)F)nn1` [Example 12], the pIC50 is 6.82.

Consider `C[C@@H](O)CNc1nnc(-c2ccc(C(F)(F)F)cc2C(F)(F)F)cc1-n1cccn1` [Example 13], for which the pIC50 is 6.92.

Consider `C[C@@H](O)CNc1nnc(-c2ccc(C(F)(F)F)cc2C(F)(F)F)cc1C(=O)N(C)C` [Example 14], for which the pIC50 is 6.48.

`Cc1cc(C)n(-c2cc(-c3ccc(C(F)(F)F)cc3C(F)(F)F)nnc2NC[C@@H](C)O)n1` [Example 15] had a pIC50 of 7.01.

The compound `Cc1cc(N[C@@H]2CCCC[C@H]2O)nnc1-c1ccc(C(F)(F)F)cc1C(F)(F)F` [Example 16] had a pIC50 of 6.70.

`Cc1cc(-c2ccc(C(F)(F)F)cc2C(F)(F)F)nnc1N[C@@H]1CCCC[C@H]1O` [Example 17] showed a pIC50 of 6.96.

For the compound `C[C@@H](O)CNc1ccc(-c2ccc(C(F)(F)F)cc2O)nn1` [Example 18], the pIC50 was 6.59.

Consider `C[C@@H](O)CNc1nnc(-c2ccc(C(F)(F)F)cc2C(F)(F)F)cc1OCCOCc1ccccc1` [Example 19], for which the pIC50 was 6.21.

In turn, `Cc1c(NC[C@H](C)O)nnc(-c2ccc(C(F)(F)F)cc2C(F)(F)F)c1C` [Example 20] had a pIC50 of 5.82.

On to `COc1ccc(-c2cc(C)c(NC[C@@H](C)O)nn2)c(C(F)(F)F)c1` [Example 21], for which the negative-log IC50 (pIC50) was 6.80.

Turning to `COc1ccc(-c2cc(C)c(NC[C@@H](C)O)nn2)c(C2CC2)c1` [Example 22], the pIC50 was 6.28.

`Cc1cc(-c2ccc(Cl)cc2C(F)(F)F)nnc1NC[C@@H](C)O` [Example 23] had a pIC50 of 6.92. This pIC50 lies 0.64 log units higher than the previous one.

Compound `CC(C)c1cc(-c2ccc(C(F)(F)F)cc2C(F)(F)F)nnc1NC[C@@H](C)O` [Example 24] showed a negative-log IC50 (pIC50) of 6.25.

The compound `Cc1cc(NC[C@@H](C)O)nnc1-c1ccccc1O` [Example 25] gave a pIC50 of 6.30.

`CC(C)c1cc(NC[C@@H](C)O)nnc1-c1ccc(C(F)(F)F)cc1O` [Example 26] had a pIC50 of 7.27. Against the preceding compound, the pIC50 is 0.97 log units higher.

Take `Cc1cc(NC[C@@H](C)O)nnc1-c1ccc(F)cc1O` [Example 27]: the pIC50 is 6.72.

`C[C@@H](O)CNc1nnc(-c2ccc(C(F)(F)F)cc2C(F)(F)F)cc1C1CC1` [Example 28] gave a pIC50 of 6.70.

For the compound `C[C@@H](O)CNc1cc(C2CC2)c(-c2ccc(C(F)(F)F)cc2C(F)(F)F)nn1` [Example 29], the pIC50 is 6.34.

Compound `Cc1cc(NC[C@@H](C)O)nnc1-c1cccc(F)c1O` [Example 30] had a pIC50 of 6.29.

As to `COc1cccc(-c2nnc(NC[C@@H](C)O)cc2C)c1O` [Example 31], the pIC50 was 6.57.

As to `C[C@@H](O)CNc1cc(C2CC2)c(-c2ccc(C(F)(F)F)cc2O)nn1` [Example 32], the pIC50 is 7.96.

Turning to `Cc1cc(NC[C@@H](C)O)nnc1-c1cccc(Cl)c1O` [Example 33], the pIC50 is 6.77. This pIC50 is 1.19 log units lower than that of the compound before.

In turn, `CC(=O)O[C@H](C)CNc1cc(C)c(-c2ccc(C(F)(F)F)cc2O)nn1` [Example 34] gave a pIC50 of 7.68. Against the preceding compound, the pIC50 is 0.91 log units higher.

With `C[C@@H](O)CNc1nnc(-c2ccc(C(F)(F)F)cc2O)cc1N(C)C` [Example 35], the pIC50 is 6.23.

The compound `Cc1cc(NC[C@@H](C)O)nnc1-c1c(O)cccc1F` [Example 36] gave a pIC50 of 6.21.

For `C[C@@H](O)CNc1nnc(-c2ccc(C(F)(F)F)cc2O)cc1C#N` [Example 37], the pIC50 was 7.48.

For the compound `C[C@@H](O)CNc1nnc(-c2ccc(C(F)(F)F)cc2O)c(C2CC2)c1C1CC1` [Example 39], the pIC50 was 6.12.

`C[C@@H](O)CNc1nnc(-c2ccc(C(F)(F)F)cc2C(F)(F)F)cc1C(=O)N1CCOCC1` [Example 40, (6-[2,4-bis(trifluoromethyl)phenyl]-3-{[(2R)-2-hydroxypropyl]amino}pyridazin-4-yl)(morpholin-4-yl)methanone] gave a pIC50 of 6.62. Against the preceding compound, the pIC50 is 0.50 log units higher.

In turn, `C[C@@H](O)CNc1nnc(-c2ccc(C(F)(F)F)cc2C(F)(F)F)cc1C(N)=O` [Example 41] gave a pIC50 of 6.70.

In turn, `C[C@@H](O)CNc1nnc(-c2ccc(C(F)(F)F)cc2C(F)(F)F)cc1C(=O)N1CCN(C)CC1` [Example 42, (6-[2,4-bis(trifluoromethyl)phenyl]-3-{[(2R)-2-hydroxypropyl]amino}pyridazine-4-yl)(4-methylpiperazin-1-yl)methanone] had a pIC50 of 5.82. Compared with the last compound, the pIC50 is 0.88 log units lower.

Turning to `C[C@@H](O)CNc1nnc(-c2ccc(C(F)(F)F)cc2C(F)(F)F)cc1C(=O)N1CCO[C@@H](C)C1` [Example 43], the pIC50 is 6.07.

Take `C[C@@H](O)CNc1nnc(-c2ccc(C(F)(F)F)cc2C(F)(F)F)cc1C(=O)N1CCSCC1` [Example 44]: the pIC50 was 6.24.

`CC(=O)N[C@H](C)CNc1ccc(-c2ccc(C(F)(F)F)cc2C(F)(F)F)nn1` [Example 45, N—[(R2R)-1-({6-[2,4-bis(trifluoromethyl)phenyl]pyridazin-3-yl}amino)propan-2-yl]acetoamide] gave a pIC50 of 6.28.

As to `O=C(NCCCCNc1ccc(-c2ccc(C(F)(F)F)cc2C(F)(F)F)nn1)C(F)F` [Example 46, N-[4({6-[2,4-bis(trifluoromethyl)phenyl]pyridazin-3-yl}amino)butyl]-2,2-difluoroacetoamide], the pIC50 is 6.92.

`CC(C)C(=O)NCCCCNc1ccc(-c2ccc(C(F)(F)F)cc2C(F)(F)F)nn1` [Example 47]: the pIC50 was 6.40.

Compound `O=C(NCCCCNc1ccc(-c2ccc(C(F)(F)F)cc2C(F)(F)F)nn1)C1CC1` [Example 48] gave a pIC50 of 6.29. This pIC50 and that of the compound before are within 0.2 log units of each other.

As for `C[C@@H](O)CNc1nnc(-c2ccc(C(F)(F)F)cc2C(F)(F)F)cc1OC(F)F` [Example 49, (2R)-1-({6-[2,4-bis(trifluoromethyl)phenyl]-4-(difluoromethoxy)pyridazin-3-yl}amino)propan-2-ol hydrochloride], the pIC50 was 6.17. The pIC50 values of the last two compounds are within 0.2 log units of each other.

Compound `OCCCNc1nnc(-c2ccc(C(F)(F)F)cc2)cc1-c1ccco1` [Example 50] showed a negative logarithm of the IC50 (pIC50) of 5.96.

`OCCCNc1cc(-c2ccco2)c(-c2ccc(C(F)(F)F)cc2)nn1` [Example 51] showed a pIC50 of 6.00. The pIC50 values of the last two compounds are within 0.2 log units of each other.

With `Cc1cc(NCCCO)nnc1-c1ccc(C(F)(F)F)cc1` [Example 52], the pIC50 is 6.33.

The compound `Cc1cc(-c2ccc(C(F)(F)F)cc2)nnc1NCCCO` [Example 53] gave a pIC50 of 5.57. This pIC50 lies 0.76 log units lower than the previous one.

The compound `OCCCNc1cc(-c2ccccc2)c(-c2ccc(C(F)(F)F)cc2C(F)(F)F)nn1` [Example 54] gave a pIC50 of 5.46. This pIC50 and that of the compound before are within 0.2 log units of each other.

`C[C@@H](O)CNc1cc(-n2ccnc2)c(-c2ccc(C(F)(F)F)cc2C(F)(F)F)nn1` [Example 55] had a pIC50 of 5.29.

In the case of `C[C@@H]1COCCN1C(=O)c1cc(-c2ccc(C(F)(F)F)cc2C(F)(F)F)nnc1NC[C@@H](C)O` [Example 56], the pIC50 is 5.60.

Regarding `C[C@@H](O)CNc1nnc(-c2ccc(C(F)(F)F)cc2C(F)(F)F)cc1C(=O)N1CCOC[C@@H]1C` [Example 57], the negative logarithm of the IC50 (pIC50) was 5.80.

Compound `C[C@@H]1CN(C(=O)c2cc(-c3ccc(C(F)(F)F)cc3C(F)(F)F)nnc2NC[C@@H](C)O)CCO1` [Example 58] showed a pIC50 of 6.02.

`COc1ccc(-c2nnc(NC[C@@H](C)O)cc2C)c(C(F)(F)F)c1` [Example 59] gave a pIC50 of 6.12.

`COc1ccc(-c2nnc(NC[C@@H](C)O)cc2C)c(C2CC2)c1` [Example 60] showed a pIC50 of 5.77.

`CC(C)c1cc(NC[C@@H](C)O)nnc1-c1ccc(C(F)(F)F)cc1C(F)(F)F` [Example 61] showed a pIC50 of 5.82.

`Cc1cc(NC[C@@H](C)O)nnc1-c1cc(F)ccc1O` [Example 62]: the pIC50 is 5.68.

These data come from US20230107277A1, “SUBSTITUTED PYRIDAZINE COMPOUND” (Astellas Pharma Inc., priority 2020, published 2023).
